Measurements published in ChEMBL document CHEMBL1155111, “Identification of a potent, selective, and orally active leukotriene a4 hydrolase inhibitor with anti-inflammatory activity” (J Med Chem, 2008).
≈ marks a conversion by molar mass, not a printed value.

Assays:
[1] = Tmax in rat at 10 mg/kg, po; format: ADME, organism-based; set-up: dose 10 mg/kg, route oral; details: in vivo
[2] = Half life in Beagle dog plasma at 10 mg/kg, po; format: ADME, organism-based, Canis lupus familiaris; set-up: dose 10 mg/kg, route oral
[3] = Half life in rat plasma at 2 mg/kg, iv; format: ADME, organism-based; set-up: dose 2 mg/kg, route intravenous
[4] = Clearance in Beagle dog at 2 mg/kg, iv; format: ADME, organism-based, Canis lupus familiaris; set-up: dose 2 mg/kg, route intravenous; details: in vivo
[5] = Cmax in Beagle dog at 10 mg/kg, po; format: ADME, organism-based, Canis lupus familiaris; set-up: dose 10 mg/kg, route oral; details: in vivo
[6] = Volume of distribution at steady state in Beagle dog at 2 mg/kg, iv; format: ADME, organism-based, Canis lupus familiaris; set-up: dose 2 mg/kg, route intravenous; details: in vivo, read-out: Vdss
[7] = Half life in Beagle dog plasma at 2 mg/kg, iv; format: ADME, organism-based, Canis lupus familiaris; set-up: dose 2 mg/kg, route intravenous
[8] = Clearance in rat at 2 mg/kg, iv; format: ADME, organism-based; set-up: dose 2 mg/kg, route intravenous; details: in vivo
[9] = Cmax in rat at 10 mg/kg, po; format: ADME, organism-based; set-up: dose 10 mg/kg, route oral; details: in vivo
[10] = AUC (0 to infinity) in Beagle dog at 2 mg/kg, iv; format: ADME, organism-based, Canis lupus familiaris; set-up: time infinity, dose 2 mg/kg, route intravenous; details: plasma
[11] = AUC (0 to infinity) in Beagle dog at 10 mg/kg, po; format: ADME, organism-based, Canis lupus familiaris; set-up: time infinity, dose 10 mg/kg, route oral; details: plasma
[12] = Cmax in Beagle dog at 2 mg/kg, iv; format: ADME, organism-based, Canis lupus familiaris; set-up: dose 2 mg/kg, route intravenous; details: in vivo
[13] = AUC (0 to infinity) in rat at 10 mg/kg, po; format: ADME, organism-based; set-up: time infinity, dose 10 mg/kg, route oral; details: plasma
[14] = AUC (0 to infinity) in rat at 2 mg/kg, iv; format: ADME, organism-based; set-up: time infinity, dose 2 mg/kg, route intravenous; details: plasma
[15] = Tmax in Beagle dog at 10 mg/kg, po; format: ADME, organism-based, Canis lupus familiaris; set-up: dose 10 mg/kg, route oral; details: in vivo
[16] = Volume of distribution at steady state in rat at 2 mg/kg, iv; format: ADME, organism-based; set-up: dose 2 mg/kg, route intravenous; details: in vivo, read-out: Vdss
[17] = Bioavailability in Beagle dog at 10 mg/kg, po; format: ADME, organism-based, Canis lupus familiaris; details: in vivo
[18] = Bioavailability in rat at 10 mg/kg, po; format: ADME, organism-based; details: in vivo
[19] = Terminal elimination half life in rat plasma at 10 mg/kg, po; format: ADME, organism-based; set-up: dose 10 mg/kg, route oral
[20] = Cmax in rat at 2 mg/kg, iv; format: ADME, organism-based; set-up: dose 2 mg/kg, route intravenous; details: in vivo
[21] = Volume of distribution at steady state in rat at 3 mg/kg, iv; format: ADME, organism-based; set-up: dose 3 mg/kg, route intravenous; details: in vivo, read-out: Vdss
[22] = Cmax in Beagle dog at 30 mg/kg, po; format: ADME, organism-based, Canis lupus familiaris; set-up: dose 30 mg/kg, route oral; details: in vivo
[23] = Chemical stability assessed as half life of hydrolysis at pH 2; format: physicochemical; details: buffer
[24] = Cmax in rat at 3 mg/kg, iv; format: ADME, organism-based; set-up: dose 3 mg/kg, route intravenous; details: in vivo
[25] = Cmax in Beagle dog at 3 mg/kg, iv; format: ADME, organism-based, Canis lupus familiaris; set-up: dose 3 mg/kg, route intravenous; details: in vivo
[26] = Cmax in rat at 30 mg/kg, po; format: ADME, organism-based; set-up: dose 30 mg/kg, route oral; details: in vivo
[27] = Terminal elimination half life in rat plasma at 30 mg/kg, po; format: ADME, organism-based; set-up: dose 30 mg/kg, route oral
[28] = Clearance in Beagle dog at 3 mg/kg, iv; format: ADME, organism-based, Canis lupus familiaris; set-up: dose 3 mg/kg, route intravenous; details: in vivo
[29] = Half life in Beagle dog plasma at 30 mg/kg, po; format: ADME, organism-based, Canis lupus familiaris; set-up: dose 30 mg/kg, route oral
[30] = AUC (0 to infinity) in Beagle dog at 3 mg/kg, iv; format: ADME, organism-based, Canis lupus familiaris; set-up: time infinity, dose 3 mg/kg, route intravenous; details: plasma
[31] = AUC (0 to infinity) in rat at 3 mg/kg, iv; format: ADME, organism-based; set-up: time infinity, dose 3 mg/kg, route intravenous; details: plasma
[32] = Volume of distribution at steady state in Beagle dog at 3 mg/kg, iv; format: ADME, organism-based, Canis lupus familiaris; set-up: dose 3 mg/kg, route intravenous; details: in vivo, read-out: Vdss
[33] = Chemical stability assessed as half life of hydrolysis at pH 7.4; format: physicochemical; details: buffer
[34] = Tmax in Beagle dog at 30 mg/kg, po; format: ADME, organism-based, Canis lupus familiaris; set-up: dose 30 mg/kg, route oral; details: in vivo
[35] = Half life in Beagle dog plasma at 3 mg/kg, iv; format: ADME, organism-based, Canis lupus familiaris; set-up: dose 3 mg/kg, route intravenous
[36] = Tmax in rat at 30 mg/kg, po; format: ADME, organism-based; set-up: dose 30 mg/kg, route oral; details: in vivo
[37] = Metabolic stability in dog liver S9 fraction assessed as elimination half life; format: ADME, subcellular, Canis lupus familiaris
[38] = Metabolic stability in rat liver S9 fraction assessed as elimination half life; format: ADME, subcellular
[39] = Bioavailability in rat at 30 mg/kg, po; format: ADME, organism-based; details: in vivo
[40] = Solubility at pH 7.4; format: physicochemical; details: buffer
[41] = Half life in rat plasma at 3 mg/kg, iv; format: ADME, organism-based; set-up: dose 3 mg/kg, route intravenous
[42] = Metabolic stability in mouse liver S9 fraction assessed as elimination half life; format: ADME, subcellular
[43] = AUC (0 to infinity) in rat at 30 mg/kg, po; format: ADME, organism-based; set-up: time infinity, dose 30 mg/kg, route oral; details: plasma
[44] = Clearance in rat at 3 mg/kg, iv; format: ADME, organism-based; set-up: dose 3 mg/kg, route intravenous; details: in vivo
[45] = Bioavailability in Beagle dog at 30 mg/kg, po; format: ADME, organism-based, Canis lupus familiaris; details: in vivo
[46] = Metabolic stability in human liver microsomes assessed as elimination half life; format: ADME, Microsome
[47] = AUC (0 to infinity) in Beagle dog at 30 mg/kg, po; format: ADME, organism-based, Canis lupus familiaris; set-up: time infinity, dose 30 mg/kg, route oral; details: plasma

## O=C(CO)NC1CCN(Cc2ccc(Oc3nc4ccccc4s3)cc2)CC1
[1]
  Tmax: 5.3 h
[2]
  half-life: 6.9 h
[3]
  half-life: 3.5 h
[4]
  clearance: 93.3 mL/min
[5]
  Cmax: 26000 nM
[6]
  Vd: 3.2 L/kg
[7]
  half-life: 3.6 h
[8]
  clearance: 3 mL/min
[9]
  Cmax: 2200 nM
[10]
  AUC(0-inf): 8 µM·h
[11]
  AUC(0-inf): 60.3 µM·h
[12]
  Cmax: 2800 nM
[13]
  AUC(0-inf): 33 µM·h
[14]
  AUC(0-inf): 10 µM·h
[15]
  Tmax: 1 h
[16]
  Vd: 2.5 L/kg
[17]
  bioavailability: 150%
[18]
  bioavailability: 65%
[19]
  half-life: 5.6 h
[20]
  Cmax: 2200 nM

## c1ccc2oc(Oc3ccc(OCCN4CCCCC4)cc3)nc2c1
[21]
  Vd: 7 L/kg
[22]
  Cmax: 1200 nM
[23]
  half-life: 1.5 h
[24]
  Cmax: 3800 nM
[25]
  Cmax: 4500 nM
[26]
  Cmax: 1100 nM
[27]
  half-life: 5.2 h
[28]
  clearance: 13 mL/min
[29]
  half-life: 2.3 h
[30]
  AUC(0-inf): 3.9 µM·h
[31]
  AUC(0-inf): 4.8 µM·h
[32]
  Vd: 3.2 L/kg
[33]
  half-life: > 16.7 h
[34]
  Tmax: 2.3 h
[35]
  half-life: 1 h
[36]
  Tmax: 4.6 h
[37]
  half-life: 0.9 h
[38]
  half-life: > 1.67 h
[39]
  bioavailability: 31%
[40]
  solubility: 160 µg/mL (≈ 473 µM)
[41]
  half-life: 2.6 h
[42]
  half-life: 0.667 h
[43]
  AUC(0-inf): 15 µM·h
[44]
  clearance: 9.5 mL/min
[45]
  bioavailability: 11%
[46]
  half-life: > 1.67 h
[47]
  AUC(0-inf): 4.2 µM·h
